Experiments:
Assay in all cases: microscale thermophoresis
Format in all cases: binding
septin7 = molecular target: T1, septin7 (Homo sapiens, UniProt Q16181)
T1 sequence (Q16181 2-437): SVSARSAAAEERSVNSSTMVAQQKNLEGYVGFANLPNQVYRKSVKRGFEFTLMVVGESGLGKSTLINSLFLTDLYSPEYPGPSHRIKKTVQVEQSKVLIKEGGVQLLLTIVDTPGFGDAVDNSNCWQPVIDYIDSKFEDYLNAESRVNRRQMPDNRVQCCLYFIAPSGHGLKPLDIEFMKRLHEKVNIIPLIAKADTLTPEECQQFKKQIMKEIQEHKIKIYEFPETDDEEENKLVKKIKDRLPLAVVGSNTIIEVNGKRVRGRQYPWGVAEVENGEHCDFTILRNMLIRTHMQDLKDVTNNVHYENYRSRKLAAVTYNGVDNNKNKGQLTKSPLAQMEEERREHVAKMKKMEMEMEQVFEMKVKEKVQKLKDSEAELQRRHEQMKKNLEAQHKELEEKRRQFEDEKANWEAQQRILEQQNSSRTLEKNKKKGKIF

septin6 = molecular target: T2, septin6 (Homo sapiens, UniProt Q14141)
T2 sequence (Q14141 2-434): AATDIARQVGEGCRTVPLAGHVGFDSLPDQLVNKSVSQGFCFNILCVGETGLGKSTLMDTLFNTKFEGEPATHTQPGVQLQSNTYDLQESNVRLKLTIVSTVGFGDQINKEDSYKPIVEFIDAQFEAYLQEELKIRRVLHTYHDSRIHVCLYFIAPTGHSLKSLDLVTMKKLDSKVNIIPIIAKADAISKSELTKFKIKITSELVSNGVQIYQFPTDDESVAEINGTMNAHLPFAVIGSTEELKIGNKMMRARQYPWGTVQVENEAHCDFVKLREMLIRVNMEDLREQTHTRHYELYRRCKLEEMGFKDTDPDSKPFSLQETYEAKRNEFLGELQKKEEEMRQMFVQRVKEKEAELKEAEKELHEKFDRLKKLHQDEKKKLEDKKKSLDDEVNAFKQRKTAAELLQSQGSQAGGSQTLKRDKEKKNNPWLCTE

septin2 = molecular target: T3, septin2 (Homo sapiens, UniProt Q15019)
T3 sequence (Q15019 1-361): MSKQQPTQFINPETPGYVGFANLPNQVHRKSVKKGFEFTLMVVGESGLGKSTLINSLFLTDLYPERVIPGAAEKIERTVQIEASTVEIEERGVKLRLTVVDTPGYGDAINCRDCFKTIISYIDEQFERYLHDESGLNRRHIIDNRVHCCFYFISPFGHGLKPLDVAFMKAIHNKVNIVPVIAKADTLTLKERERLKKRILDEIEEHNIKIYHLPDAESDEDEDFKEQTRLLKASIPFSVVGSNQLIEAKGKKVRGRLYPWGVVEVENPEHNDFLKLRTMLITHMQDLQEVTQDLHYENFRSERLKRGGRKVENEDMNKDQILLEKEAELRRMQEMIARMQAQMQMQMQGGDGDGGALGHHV

Kd (septin7): 0.98 µM
Kd (septin6): 43.1 µM
Kd (septin2): 54.8 µM
SMILES: OC1(c2ccc(Cl)c(C(F)(F)F)c2)CCN(CCCC(c2ccc(F)cc2)c2ccc(F)cc2)CC1 [PFD, penfluridol]

Reference: paper PMC11754080 (iScience, 2024)
